Earlier results in patent US20070259820A1, “METHODS AND REAGENTS FOR ACTIVATING HEAT SHOCK PROTEIN 70” (THE REGENTS OF THE UNIVERSITY OF MICHIGAN, priority 2006, published 2007).

Legend:
Hsp70 [1] = details: prior-art statement in background
Hsp70 [2] = details: prior-art statement in background; remark: listed apart in the source

| effect on Hsp70's ATPase activity (Hsp70 [1]) | binding to Hsp70 in "pull-down" studies (Hsp70 [2]) | SMILES |
| --- | --- | --- |
| stimulate Hsp70's ATPase activity |  | N=C(N)NCCCCCCC(=O)NC(O)C(=O)NCCCCNCCCN (centres unmarked) [15-deoxyspergualin] |
|  | bind Hsp70 | NCCCNCCCCNC(=O)[C@H](O)NC(=O)C[C@@H](O)CCCCN=C(N)N [spergaulin] |
